Where two headings read alike, the source gives them in different places.
Assays:
[1] = biological target: T1, IκB kinase (IKK enzyme preparation) (Homo sapiens, UniProt O14920); assay: IKK-Enzyme ELISA; type: biochemical
T1 sequence (O14920 1-756): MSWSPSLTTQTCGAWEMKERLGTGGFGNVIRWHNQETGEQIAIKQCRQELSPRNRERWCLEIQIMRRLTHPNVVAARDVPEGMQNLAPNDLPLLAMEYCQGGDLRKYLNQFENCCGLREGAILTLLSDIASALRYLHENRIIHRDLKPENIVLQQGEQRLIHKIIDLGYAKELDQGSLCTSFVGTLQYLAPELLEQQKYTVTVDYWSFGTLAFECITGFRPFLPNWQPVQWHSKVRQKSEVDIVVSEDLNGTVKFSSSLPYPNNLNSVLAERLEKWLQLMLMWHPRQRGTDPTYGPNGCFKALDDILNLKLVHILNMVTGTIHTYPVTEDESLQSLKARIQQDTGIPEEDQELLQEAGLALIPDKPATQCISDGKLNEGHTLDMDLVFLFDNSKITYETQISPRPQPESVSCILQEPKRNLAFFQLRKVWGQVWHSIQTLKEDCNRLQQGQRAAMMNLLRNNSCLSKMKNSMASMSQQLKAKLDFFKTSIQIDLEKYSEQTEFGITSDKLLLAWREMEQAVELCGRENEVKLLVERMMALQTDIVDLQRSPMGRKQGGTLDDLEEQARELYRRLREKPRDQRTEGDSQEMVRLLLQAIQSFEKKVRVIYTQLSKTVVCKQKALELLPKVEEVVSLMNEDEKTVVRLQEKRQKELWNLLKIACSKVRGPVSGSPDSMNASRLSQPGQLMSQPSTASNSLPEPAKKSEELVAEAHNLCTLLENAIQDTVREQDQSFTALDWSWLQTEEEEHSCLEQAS
Method: The assay buffer has the following composition (50 mM HEPES, 10 mM MgCl2, 10 mM β-Glycerophosphate, 2 μM Microcystin-LR, 0.01% NP-40, 5 mM DTT).
The IKK enzyme preparation was diluted 1:50 (in-house-made preparation) plus test compound in DMSO (final concentration in well: 2%).
The assay procedures were as follows:
Incubation of enzyme and compound for 30 min;
pSer36-IkB Peptide (Substrate): 40 μM;
Incubation for 45 min and Addition of anti-pSer32-pSer36-IkB Peptid-antibody;
Incubation for 45 min and transfer to protein-G-coated plate;
Incubation for 90 min followed by 3× washing;
Addition of streptavidin-HRP, then incubation 45 min followed by 6× washing;
Addition of TMB and Incubation for 15 min; and
Stop solution and read using photometer.

[2] = test system: IL-1β-induced NF-κB activation; assay: NF-κB-Luciferase Reporter Mouse Model, dose response determination; type: in vivo, Balb/c female mice; conditions: for effect on IL-1β-induced NF-κB activity: intranasal dosing 0.3-10 mg/kg, FIGS. 1 and 2
Method: A. NF-κB-Luciferase Reporter Mouse Model Methods employed for mouse imaging studies with Compound (A) and Compound (B). General Description Compounds were used as nanomilled suspensions in 0.2% Tween-80 in PBS and were dosed through the intranasal route. Intranasal drug and inflammatory stimulus administration: Mice are anesthetized in 4% is isoflurane gas in oxygen. A volume of 25 μl is applied to each nostril and the mice are allowed to breathe in the suspension. Balb/c female mice at 6-8 weeks of age were used for studies in which AdV-NFκB-luciferase reporter was instilled in the lung. To imagine mice, they are anesthetized with 4% isoflurane in oxygen. Luciferin is delivered i.p. at a dose of 150 mg/kg. 10 minutes after luciferin injection, the animals are imaged in an IVIS200 system (Xenogen) with a one-minute bioluminescent exposure. Alternatively, 10-15 minutes post luciferin administration, mice are rapidly euthanized and internal tissues are dissected and imaged ex vivo. B. Dose Response Determination 1-2×10^8 pfu adenovirus-NFκB-luciferase is delivered intranasally 3-5 days prior to stimulation (i.n.) with an inflammatory stimulus (IL-1β or LPS). Animals are dosed i.n. with 0.3-10 mg/kg of compound 30 min—1 h prior to challenge with 0.5 μg LPS or 50 ng IL-1β. Animals are then imaged once or several times from 1 h to 24 h after the inflammatory stimulus is administered.

[3] = Pharmacokinetic procedures: compound levels in lung and plasma after intra-tracheal instillation; type: in vivo, Male Hartley guinea pigs; conditions: for systemic exposure after intratracheal administration: i.t. administration; for Kp at 1 h: male, Hartley, guinea pig, lung and plasma, other: intra-tracheal instillation, i.t. instillation 0.01-0.3 mg/kg, 1 h after dosing, depending on the dose, read-out: lung to plasma ratio
Method: C. Pharmacokinetic Procedures
Male Hartley guinea pigs (450-550 g) previously sensitized with ovalbumin were used for the determination of compound levels in lung and plasma. Nanomilled suspensions of Compound (A) and Compound (B) were dosed via intra-tracheal instillation at 0.01, 0.03, 0.1 and 0.3 mg/kg. One hour after dosing, animals were euthanized (Euthasol), and 1 mL blood samples were obtained by cardiac puncture and collected into heparin-coated syringes. Plasma was separated from the cellular component of the blood by centrifugation, and stored at −80° C. until assayed. Lungs were dissected out, blotted dry, weighted and stored in 20-25 mL glass vials individually at −80° C. until assayed for compound levels.
The lung to plasma ratio for Compound (A) ranges from 143 to 284 (depending on the dose) whereas the lung to plasma ratio for Compound (B) ranges from 13 to 44 (depending on the dose). These ratios were obtained by dividing the lung compound levels to that of the corresponding plasma levels at the same dose.

[4] = read-out: IC50 (nM) 50 μM ATP, 50 μM ATP
[5] = read-out: IC50 (nM) 1 mM ATP, 1 mM ATP

CNc1nccc(-c2cc3cc(C(=O)N[C@@H](CN(c4ccccc4)c4ccccn4)C(=O)OC)ccc3[nH]2)n1 [(C)]
IC50 [1, 4]: 16.8 nM | IC50 [1, 5]: 378 nM

CNc1nccc(-c2cc3cc(C(=O)N[C@@H](CN(c4ccccc4)c4ncccn4)C(=O)O)ccc3[nH]2)n1 [(D)]
IC50 [1, 5]: 3.8 nM

CNc1nccc(-c2cc3cc(C(=O)N[C@@H](CN(c4ccccc4)c4ccccn4)C(=O)O)ccc3[nH]2)n1 [Compound (A), 2-{[2-(2-Methylamino-pyrimidin-4-yl)-1H-indole-5-carbonyl]-amino}-3-(phenyl-pyridin-2-yl-amino)-propionic acid]
ED50 ([2]; Mus musculus, intranasal nanomilled suspension, 0.3-10 mg/kg, IL-1β challenge, lung bioluminescence, read-out: estimated ED50, IL-1β-induced NF-κB activation): ~1 mg/kg | effect on IL-1β-induced NF-κB activity [2]: inhibited in a dose-dependent manner | IC50 [1, 4]: 0.4 nM | IC50 [1, 5]: 0.08 nM | systemic exposure after oral administration [3]: low systemic exposure | systemic exposure after intratracheal administration [3]: low systemic exposure | Kp at 1 h [3]: 143 to 284

CNc1nccc(-c2cc3cc(C(=O)N[C@@H](CN(c4ccccc4)c4ccccn4)C(=O)NOC)ccc3[nH]2)n1 [Compound (B)]
effect on IL-1β-induced NF-κB activity [2]: inhibited in a dose-dependent manner | IC50 [1, 4]: 0.8 nM | IC50 [1, 5]: 56.4 nM | lung exposure after i.t. instillation ([3]; 0.3 mg/kg i.t., FIG. 3): low relative to Compound (A) | systemic exposure after oral administration [3]: highly systemically available | systemic exposure after intratracheal administration [3]: highly systemically distributed | Kp at 1 h [3]: 13 to 44

Reference: patent US20070142417A1, “Substantially Pure 2-{[2-(2-Methylamino-Pyrimidin-4-YL)-1H-Indole-5-Carbonyl]-Amino}-3-Phenylpyridin-2-YL-Amino)-Propionic Acid as an IkB Kinase Inhibitor” (AVENTIS PHARMACEUTICALS INC, priority 2005, published 2007)
